This is an account of results in patent publication US20230295087A1, “AGONISTS OF ROR GAMMAt” (BRISTOL-MYERS SQUIBB COMPANY, priority 2019, published 2023).

In the experiment the target is T1, human RORgT (Homo sapiens, UniProt P51449).
T1 construct: expressed in transfected cells
T1 sequence (P51449 267-516): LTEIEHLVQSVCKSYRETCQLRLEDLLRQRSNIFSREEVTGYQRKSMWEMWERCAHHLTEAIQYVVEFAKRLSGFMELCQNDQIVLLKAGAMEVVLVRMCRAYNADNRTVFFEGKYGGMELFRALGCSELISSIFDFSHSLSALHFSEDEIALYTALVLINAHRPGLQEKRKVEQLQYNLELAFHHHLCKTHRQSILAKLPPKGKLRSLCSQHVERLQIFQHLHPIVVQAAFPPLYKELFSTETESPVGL
The experiment is described as follows: RORgT Gal4 Luciferase Reporter Gene Assay. The settings on record: engineered Jurkat cells overexpressing RORgT (LBD or full length) fused with Gal4 Luc reporter; 18 hours at 37° C.; luminescence. The class given is cell-based. As for the experimental part: RORgT Gal4 Luciferase Reporter Gene Assay
25 µL of cryopreserved Jurkat cells over expressing ligand binding domain (LBD) of RORgT (aa267-516, NM_005060) and Gal4 Luc, or full length of human RORgT and Gal4 Luc, were plated in 384-well solid white cell culture plates (PerkinElmer 6007899), with a density of 10,000 cells/well in RPMI 1640 cell culture media (Gibco 11875-085). The media contained 0.1% BSA, 10 mM HEPES (Gibco 15360-080), […] Sodium Pyruvate (Gibco 11360-040), […] Hygromycin B (Invitrogen 10687-010), and […] Blasticidin (Invitrogen R210-01).
100 nL of compound at varying concentrations in 3-fold serial dilution, with final concentrations ranging from 40 µM to 0.67 nM, were added to the cells using Labcyte Echo 550. The compound and the cells were incubated for 18 hours at 37° C. in a cell culture incubator. Cells were then lysed with 15 uL of Steady-Glo Luciferase Assay reagent (Promega EZ550), followed by centrifuging the assay plates at 1500 RPM for 1 minute. Subsequently, the plates were read on the Envision (PerkinElmer). The inhibition of constitutive activity of RORgT achieved by graded concentrations of compound was calculated as a percentage of the luminescence signal window reduction over a control compound.

Molecules are shown by their SMILES. pEC50: −log10 of the molar value.

Turning to `O=C(C1CCC(B(O)O)CC1)N1CC[C@@]2(S(=O)(=O)c3ccc(F)cc3)c3ccc(OCc4c(F)cccc4C(F)(F)F)cc3CC[C@@H]12` (stereo partly drawn) [Example 13, (4-((3aR,9bR)-7-((2-fluoro-6-(trifluoromethyl)benzyl)oxy)-9b-((4-fluorophenyl)sulfonyl)-2,3,3a,4,5,9b-hexahydro-1H-benzo[e]indole-3-carbonyl)cyclohexyl)boronic acid], the negative-log EC50 (pEC50) is 8.82. Next, `O=C(C1CCC(B(O)O)CC1)N1CC[C@@]2(S(=O)(=O)c3ccc(F)cc3)c3ccc(OCc4c(F)cccc4C(F)(F)F)cc3CC[C@@H]12` (stereo partly drawn) [Example 14, (4-((3aR,9bR)-7-((2-fluoro-6-(trifluoromethyl)benzyl)oxy)-9b-((4-fluorophenyl)sulfonyl)-2,3,3a,4,5,9b-hexahydro-1H-benzo[e]indole-3-carbonyl)cyclohexyl)boronic acid]: 8.74. In turn, `O=C(CC1CCS(=O)(=O)C1)N1CC[C@@]2(S(=O)(=O)c3ccc(F)cc3)c3ccc(OCc4c(F)cccc4Cl)cc3CC[C@@H]12` (stereo partly drawn) [Example 15, 3-{2-[(3aR,9bR)-7-[(2-chloro-6-fluorophenyl)methoxy]-9b-(4-fluorobenzenesulfonyl)-1H,2H,3H,3aH,4H,5H,9bH-benzo[e]indol-3-yl]-2-oxoethyl}-1λ^6-thiolane-1,1-dione] showed a pEC50 of 8.42. Next, `O=C(N1CC[C@@]2(S(=O)(=O)c3ccc(F)cc3)c3ccc(OCc4c(F)cccc4Cl)cc3CC[C@@H]12)C1(O)CCS(=O)(=O)CC1` [Example 16, 4-[(3aR,9bR)-7-[(2-chloro-6-fluorophenyl)methoxy]-9b-(4-fluorobenzenesulfonyl)-1H,2H,3H,3aH,4H,5H,9bH-benzo[e]indole-3-carbonyl]-4-hydroxy-1λ^6-thiane-1,1-dione]: 8.26; `O=C(C1CCS(=O)(=O)C1)N1CC[C@@]2(S(=O)(=O)c3ccc(F)cc3)c3ccc(OCc4c(F)cccc4Cl)cc3CC[C@@H]12` (stereo partly drawn) [Example 18, 3-[(3aR,9bR)-7-[(2-chloro-6-fluorophenyl)methoxy]-9b-(4-fluorobenzenesulfonyl)-1H,2H,3H,3aH,4H,5H,9bH-benzo[e]indole-3-carbonyl]-1λ^6-thiolane-1,1-dione]: 8.22. The figure for `CC1(C(=O)N2CC[C@@]3(S(=O)(=O)c4ccc(F)cc4)c4ccc(OCc5c(F)cccc5C(F)(F)F)cc4CC[C@@H]23)CCS(=O)(=O)CC1` [Example 19] is 7.85; for `O=C([C@@H](O)C(F)(F)F)N1CC[C@@]2(S(=O)(=O)c3ccc(F)cc3)c3ccc(OCc4c(F)cccc4C(F)(F)F)cc3CC[C@@H]12` [Example 20, (2R)-1-[(3aR,9bR)-7-{[2-fluoro-6-(trifluoromethyl)phenyl]methoxy} -9b-(4-fluorobenzenesulfonyl)-1H,2H,3H,3aH,4H,5H,9bH-benzo[e]indol-3-yl]-3,3,3-trifluoro-2-hydroxypropan-1-one] it is 7.38. The compound `C[C@]1(C(=O)O)CC[C@H](C(=O)N2CC[C@@]3(S(=O)(=O)c4ccc(F)cc4)c4ccc(OCc5c(F)cccc5Cl)cc4CC[C@@H]23)CC1` [Example 21, (1r,4r)-4-[(3aR,9bR)-7-[(2-chloro-6-fluorophenyl)methoxy]-9b-(4-fluorobenzenesulfonyl)-1H,2H,3H,3aH,4H,5H,9bH-benzo[e]indole-3-carbonyl]-1-methylcyclohexane-1-carboxylic acid] had a negative-log EC50 (pEC50) of 8.00. `C[C@@H]1C[C@@H](C(=O)O)CC[C@@H]1C(=O)N1CC[C@@]2(S(=O)(=O)c3ccc(F)cc3)c3ccc(OCc4c(F)cccc4Cl)cc3CC[C@@H]12` [Example 22, (1S,3R,4S)-4-[(3aR,9bR)-7-[(2-chloro-6-fluorophenyl)methoxy]-9b-(4-fluorobenzenesulfonyl)-1H,2H,3H,3aH,4H,5H9bH-benzo[e]indole-3-carbonyl]-3-methylcyclohexane-1-carboxylic acid] had a pEC50 of 7.77.

The pEC50 is the negative decadic logarithm of the EC50, by convention in mol/L.
